# Measurements taken from patent US20120252853A1, “Positive allosteric modulators of nicotinic acetylcholine receptor” (H. Lundbeck A/S, priority 2011, published 2012).
# Biological target: human α7 receptor (Homo sapiens, UniProt P36544)
# Assay: α7 NNR flux assay (FDSS Ca assay)
# Format: cell-based
# Conditions: positive allosteric modulation; rat GH4C1 cell line stably expressing human α7; acetylcholine 20 μM; % modulation relative to PNU-120596 set to 100%
# Protocol: In this version of the assay, the human α7 receptor is stably expressed in the rat GH4C1 cell line. The assay was used to identify positive allosteric modulators (PAMs) of the α7 receptor. Activation of the channel was measured by loading cells with the calcium-sensitive fluorescent dye Calcium-4 (Assay kit from Molecular Devices), and then measuring real-time changes in fluorescence upon treatment with test compounds.
# The cell line ChanClone GH4C1-nAChRalpha7 from Genionics was seeded from frozen stock in 384-well plates in culture media 2-3 days before experiment to form an approximately 80% confluent layer on the day of experiment.
# The cell culture were split into “22.5 cm×22.5 cm”-plates with approximately 100×10^3 cells/cm^2. After four days incubation in a humidified incubator at 37° C. and 5% CO2, it had grown to an 80-90% confluent layer, and the cells were harvested.
# Two or three days before the experiment the cells were seeded in 384 well plates from Greiner bio-one (781946, CELLCOAT, Poly-D-Lysine, black, μClear).
# The cells were seeded in 384 well plates with 30 μL/well (30000 cells/well) while stirring the cell suspension or otherwise preventing the cells from precipitating. The plates were incubated at room temperature for 30-45 minutes. The plates were placed in incubator for two days (37° C. and 5% CO2).
# The loading buffer was 5% v/v Calcium-4 Kit and 2.5 mM Probenecid in assay buffer.
# Culture media were removed from the cell plates and 20 μL loading buffer was added in each well. The cell plates were placed in trays and incubated 90 minutes in the incubator (37° C.). Thereafter the plates were incubated 30 minutes at room temperature, still protected from light. Now the cell plates were ready to run in the Functional Drug Screening System (FDSS) The assay buffer was HBSS with 20 mM HEPES, pH 7.4 and 3 mM CaCl2.
# 200 nL 10 mM compound solution in DMSO was diluted in 50 μL assay buffer. The final test concentrations in the cell plates were 20-10-5-2.5-1.25-0.625-0.312-0.156-0.078-0.039 μM. Assay buffer and 3 μM PNU-120596 were used for control:
# The agonist acetylcholine was added to a final concentration of 20 μM (˜EC100). In the FDSS7000 the Ex480-Em540 was measured with 1 second intervals. The baseline was made of 5 frames before addition of test compounds, and 95 frames more were made before addition of acetylcholine. The measurement stopped 30 frames after the 2nd addition. Raw data for each well were collected as “the maximum fluorescence count” in the interval 100-131 seconds and as “the average fluorescence count” in the interval 96-100 seconds. The positive allosteric modulation in the 2nd addition was the enhancement of agonist response with test compound compared to agonist alone.
# Results were calculated as % modulation of test compound compared to the reference PNU-120596 set to 100%.
# Chain of human α7 receptor (P36544 23-502): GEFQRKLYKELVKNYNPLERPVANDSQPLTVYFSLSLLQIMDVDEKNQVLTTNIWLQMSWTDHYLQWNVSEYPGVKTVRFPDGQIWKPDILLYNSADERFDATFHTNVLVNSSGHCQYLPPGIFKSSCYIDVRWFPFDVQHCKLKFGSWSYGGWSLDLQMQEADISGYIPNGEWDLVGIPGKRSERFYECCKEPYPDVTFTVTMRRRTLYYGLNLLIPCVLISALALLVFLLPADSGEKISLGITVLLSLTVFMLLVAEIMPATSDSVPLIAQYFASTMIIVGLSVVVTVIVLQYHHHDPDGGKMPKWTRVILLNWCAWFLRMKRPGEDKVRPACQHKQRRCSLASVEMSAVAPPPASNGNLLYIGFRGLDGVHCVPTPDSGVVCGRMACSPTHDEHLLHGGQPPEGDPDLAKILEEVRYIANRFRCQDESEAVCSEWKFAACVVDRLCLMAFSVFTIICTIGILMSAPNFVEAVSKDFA
row,EC50 [µM],SMILES
1,6.5,"Cc1cc2cc(CNC(=O)c3cnn(C4COC4)c3)ccc2[nH]1 [Compound 49, N-[(2-methyl-1H-indol-5-yl)methyl]-1-(oxetan-3-yl)pyrazole-4-carboxamide]"
2,8.5,"Cc1cc2cc(CNC(=O)c3cnc(C)o3)ccc2[nH]1 [Compound 50, 2-methyl-N-[(2-methyl-1H-indol-5-yl)methyl]oxazole-5-carboxamide]"
3,6.1,"Cc1cc2cc(CNC(=O)c3cnn(C4CCOC4)c3)ccc2[nH]1 (stereo not shown) [Compound 51, N-[(2-methyl-1H-indol-5-yl)methyl]-1-tetrahydrofuran-3-yl-pyrazole-4-carboxamide]"
4,7.3,"Cc1cc(C(=O)NCc2ccc3[nH]c(C)cc3c2)n(C)n1 [Compound 55, 2,5-dimethyl-N-[(2-methyl-1H-indol-5-yl)methyl]pyrazole-3-carboxamide]"
5,4.3,"Cc1cc2cc(CNC(=O)c3onc(C)c3Cl)ccc2[nH]1 [Compound 56, 4-chloro-3-methyl-N-[(2-methyl-1H-indol-5-yl)methyl]isoxazole-5-carboxamide]"
6,3.87,"Cc1cc2cc(CNC(=O)c3cccn3C)ccc2[nH]1 [Compound 57, 1-methyl-N-[(2-methyl-1H-indol-5-yl)methyl]pyrrole-2-carboxamide]"
7,8.57,"Cc1cc(C(=O)NCc2ccc3[nH]ccc3c2)on1 [Compound 58, N-(1H-indol-5-ylmethyl)-3-methyl-isoxazole-5-carboxamide]"
8,7.7,"Cc1c(C(=O)NCc2ccc3[nH]ccc3c2)sc(=O)n1C [Compound 59, N-(1H-indol-5-ylmethyl)-3,4-dimethyl-2-oxo-thiazole-5-carboxamide]"
9,4.1,"Cc1cc2cc(CNC(=O)c3sc(=O)n(C)c3C)ccc2[nH]1 [Compound 60, 3,4-dimethyl-N-[(2-methyl-1H-indol-5-yl)methyl]-2-oxo-thiazole-5-carboxamide]"
10,5.8,"Cc1cc(C(=O)NCc2ccc3c(ccn3C(F)F)c2)on1 [Compound 63, N-[[1-(difluoromethyl)indol-5-yl]methyl]-3-methyl-isoxazole-5-carboxamide]"
11,9.3,Cc1cc(C(=O)NCc2ccc3c(c2)cc(C)n3C(F)F)on1 [Compound 64]
12,2.9,"Cc1cc2cc(CNC(=O)c3cnn(C(C)C)c3)ccc2[nH]1 [Compound 71, 1-isopropyl-N-[(2-methyl-1H-indol-5-yl)methyl]pyrazole-4-carboxamide]"
13,2.8,"[2H]C([2H])([2H])c1cc2cc(CNC(=O)c3cc(C)no3)ccc2[nH]1 [Compound 73, 3-methyl-N-[[2-(trideuteriomethyl)-1H-indol-5-yl]methyl]isoxazole-5-carboxamide]"
14,6,"Cc1cc2cc(CNC(=O)c3nnc(C)o3)ccc2[nH]1 [Compound 74, 5-methyl-N-[(2-methyl-1H-indol-5-yl)methyl]-1,3,4-oxadiazole-2-carboxamide]"
15,2.1,"CCc1cc(C(=O)NCc2ccc3[nH]c(C)cc3c2)no1 [Compound 75, 5-ethyl-N-[(2-methyl-1H-indol-5-yl)methyl]isoxazole-3-carboxamide]"
16,8.2,"Cc1cc2cc(CNC(=O)c3coc(C)n3)ccc2[nH]1 [Compound 76, 2-methyl-N-[(2-methyl-1H-indol-5-yl)methyl]oxazole-4-carboxamide]"
17,10.5,"Cc1cc2cc(CNC(=O)c3noc(C)n3)ccc2[nH]1 [Compound 77, 5-methyl-N-[(2-methyl-1H-indol-5-yl)methyl]-1,2,4-oxadiazole-3-carboxamide]"
18,0.61,"[2H]C([2H])([2H])c1cc2cc(CNC(=O)c3cc(CC(F)(F)F)no3)ccc2[nH]1 [Compound 78, N-[[2-(trideuteriomethyl)-1H-indol-5-yl]methyl]-3-(2,2,2-trifluoroethyl)isoxazole-5-carboxamide]"
19,0.56,Cc1cc2cc(CNC(=O)c3cc(CC(F)(F)F)no3)ccc2[nH]1 [Compound 79]
20,5.7,"Cc1cc(C(=O)NCc2ccc3c(ccn3C(F)(F)F)c2)on1 [Compound 80, 3-methyl-N-[[1-(trifluoromethyl)indol-5-yl]methyl]isoxazole-5-carboxamide]"
21,6,"Cc1cc(C(=O)NCc2ccc3c(c2)cc(C)n3C(F)(F)F)on1 [Compound 84, 3-methyl-N-[[2-methyl-1-(trifluoromethyl)indol-5-yl]methyl]isoxazole-5-carboxamide]"
22,2.6,"Cc1cc2cc(CNC(=O)c3cc(C(C)(C)C)on3)ccc2[nH]1 [Compound 87, 5-tert-butyl-N-[(2-methyl-1H-indol-5-yl)methyl]isoxazole-3-carboxamide]"

# Continued, molecule first:
row,SMILES,EC50 [µM]
1,"COCCn1cc(C(=O)N[C@H](C)c2ccc3[nH]c(C)cc3c2)cn1 [Compound 46, 1(2-methoxyethyl)-N-[(1R)-1-(2-methyl-1H-indol-5-yl)ethyl]pyrazole-4-carboxamide]",3.5
2,"Cc1cc2cc([C@@H](C)NC(=O)c3cnn(CCF)c3)ccc2[nH]1 [Compound 48, 1-(2-fluoroethyl)-N-[(1R)-1-(2-methyl-1H-indol-5-yl)ethyl]pyrazole-4-carboxamide]",1.7
3,"Cc1cc2cc([C@@H](C)NC(=O)c3cnn(C4COC4)c3)ccc2[nH]1 [Compound 52, N-[(1R)-1-(2-methyl-1H-indol-5-yl)ethyl]-1-(oxetan-3-yl)pyrazole-4-carboxamide]",5.3
4,"Cc1cc(C(=O)N[C@H](C)c2ccc3[nH]c(C)cc3c2F)on1 [Compound 53, N-[(1R)-1-(4-fluoro-2-methyl-1H-indol-5-yl)ethyl]-3-methyl-isoxazole-5-carboxamide]",6
5,"Cc1cc(C(=O)N[C@@H](C)c2ccc3[nH]c(C)cc3c2F)on1 [Compound 54, N-[(1S)-1-(4-fluoro-2-methyl-1H-indol-5-yl)ethyl]-3-methyl-isoxazole-5-carboxamide]",> 20
6,"Cc1cc(C(=O)N[C@@H](C)c2ccc3[nH]c(C)cc3c2)on1 [Compound 62, 3-methyl-N-[(1S)-1-(2-methyl-1H-indol-5-yl)ethyl]isoxazole-5-carboxamide]",9.1
7,"O=C(NCc1ccc2c(ccn2C(F)F)c1)c1cnn(CC(F)(F)F)c1 [Compound 68, N-[[1-(difluoromethyl)indol-5-yl]methyl]-1-(2,2,2-trifluoroethyl)pyrazole-4-carboxamide]",2.1
8,"Cc1cc2cc(CNC(=O)c3cnn(CC(F)(F)F)c3)ccc2n1C(F)F [Compound 69, N-[[1-(difluoromethyl)-2-methyl-indol-5-yl]methyl]-1-(2,2,2-trifluoroethyl)pyrazole-4-carboxamide]",4.2
9,"Cc1cc2cc(CNC(=O)c3cc(CC(F)(F)F)no3)ccc2n1C(F)F [Compound 70, N-[[1-(difluoromethyl)-2-methyl-indol-5-yl]methyl]-3-(2,2,2-trifluoroethyl)isoxazole-5-carboxamide]",9.4
10,"O=C(NCc1ccc2c(ccn2C(F)F)c1)c1cc(CC(F)(F)F)no1 [Compound 72, N-[[1-(difluoromethyl)indol-5-yl]methyl]-3-(2,2,2-trifluoroethyl)isoxazole-5-carboxamide]",7.6
11,"O=C(NCc1ccc2c(ccn2C(F)(F)F)c1)c1cnn(CC(F)(F)F)c1 [Compound 81, 1-(2,2,2-trifluoroethyl)-N-[[1-(trifluoromethyl)indol-5-yl]methyl]pyrazole-4-carboxamide]",6
12,[2H]C([2H])([2H])c1cc2cc(CNC(=O)c3cnn(CC(F)(F)F)c3)ccc2[nH]1 [Compound 82],0.98
13,"Cc1cc2cc(CNC(=O)c3cnn(CC(F)(F)F)c3)ccc2n1C(F)(F)F [Compound 83, N-[[2-methyl-1-(trifluoromethyl)indol-5-yl]methyl]-1-(2,2,2-trifluromethyl)pyrazole-4-carboxamide]",11
14,"Cc1cc2cc(CNC(=O)c3cc(CC(F)(F)F)no3)ccc2n1C(F)(F)F [Compound 85, N-[[2-methyl-1-(trifluoromethyl)indol-5-yl]methyl]-3-(2,2,2-trifluoroethyl)isoxazole-5-carboxamide]",7.7
15,"Cn1c(C(F)(F)F)cc2cc(CNC(=O)c3cnn(CC(F)(F)F)c3)ccc21 [Compound 88, N-[[1-methyl-2-(trifluoromethyl)indol-5-yl]methyl]-1-(2,2,2-trifluoroethyl)pyrazole-4-carboxamide]",6.2
